Structures can show the parent of a compound that is named as a salt.
Tests used:
[1] = tested on: Colo-205 human CRC xenograft; test: Colo-205 human CRC xenograft model, tumor microvessel histomorphometry (CD31); format: in vivo; conditions: for decrease of MVA: 3 days after the administration
Procedure: The EOC315 crystalline form Mod. […] Therefore, a study was conducted in a Colo-205 human CRC xenograft model to evaluate whether the anti-tumor activity observed in vivo is consistent with the hypothesis. The microvessel density of a tumor was determined by the quantitative histomorphometry after the endothelial cell marker CD31 was stained. Four hours after the first drug delivery, the declining level of the tumor MVA was further increased compared with each solvent control group (32%; P<0.05). Twenty-four hours after the administration, the declining level of the tumor MVA was further increased (53%; P<0.01).

[2] = Long-term stability study (25° C., RH 60%); format: physicochemical; conditions: for Related substance Impurity 5 / Related substance Impurity 6 / Related substance Maximum single impurity / Related substance Impurity 1 / Related substance Impurity 2 / Related substance Impurity 3 / Related substance Total impurity / Related substance Impurity 4 / Crystalline form: 25° C./RH 60%; for Related substance Impurity 5 / Related substance Impurity 6: limit 0.10%; for Related substance Maximum single impurity: limit 0.15%; for Related substance Impurity 1 / Related substance Impurity 2 / Related substance Impurity 3: limit 0.17%; for Related substance Total impurity: limit 1.0%; for Related substance Impurity 4: limit 3.0%; for Crystalline form: limit ModI
Procedure: Long-term stability over twelve months was evaluated at 25° C. and a relative humidity of 60%; or accelerated stability over six months was evaluated at 40° C. and a relative humidity of 75%.

[3] = Thermogravimetric analysis (TGA); format: physicochemical
Procedure: The DTA curve of a test sample has an endothermic peak at 198.1° C., which is consistent with the DSC result.

CNC(=O)c1cc(OCc2nnc(Nc3ccc(Cl)cc3)c3ccoc23)ccn1 [EOC315 crystalline form Mod. I, 4-(4-chloroanilino)-7-(2-methylaminocarbonyl-4-oxymethyl)pyridylfuro[2,3-d]pyridazine mesylate]
decrease of MVA ([1]; at 4 hours): 64%
decrease of MVA ([1]; at 6 hours): 68%
growth of tumor cells ([1]; conclusion from the xenograft results): significantly suppressed
decline of tumor MVA vs solvent control ([1]; four hours after the first drug delivery, P<0.05): 32%
decline of tumor MVA vs solvent control ([1]; twenty-four hours after the administration, P<0.01): 53%
Related substance Impurity 5 ([2]; Month 0, listed as 151211): 0.02%
Related substance Impurity 6 ([2]; Month 0, listed as 151211): 0.01%
Related substance Impurity 5 ([2]; Month 0, listed as 151212): 0.01%
Related substance Impurity 6 ([2]; Month 0, listed as 151212): Undetected
Related substance Impurity 5 ([2]; Month 0, listed as 151213): Undetected
Related substance Impurity 6 ([2]; Month 0, listed as 151213): Undetected
Related substance Maximum single impurity ([2]; Month 0, listed as 151211): 0.0079%
Related substance Maximum single impurity ([2]; Month 0, listed as 151212): 0.012%
Related substance Maximum single impurity ([2]; Month 0, listed as 151213): 0.0085%
Related substance Impurity 1 ([2]; Month 0): Undetected
Related substance Impurity 2 ([2]; Month 0): Undetected
Related substance Impurity 3 ([2]; Month 0, listed as 151211): 0.016%
Related substance Impurity 3 ([2]; Month 0, listed as 151212): 0.011%
Related substance Impurity 3 ([2]; Month 0, listed as 151213): 0.011%
Related substance Total impurity ([2]; Month 0, listed as 151211): 0.53%
Related substance Total impurity ([2]; Month 0, listed as 151212): 0.65%
Related substance Total impurity ([2]; Month 0, listed as 151213): 0.52%
Related substance Impurity 4 ([2]; Month 0, listed as 151211): 0.36%
Related substance Impurity 4 ([2]; Month 0, listed as 151212): 0.46%
Related substance Impurity 4 ([2]; Month 0, listed as 151213): 0.35%
Crystalline form ([2]; Month 0): ModI
Related substance Impurity 6 ([2]; Month 3): Undetected
Related substance Impurity 5 ([2]; Month 3, listed as 151211): 0.01%
Related substance Impurity 5 ([2]; Month 3, listed as 151212): 0.02%
Related substance Impurity 5 ([2]; Month 3, listed as 151213): 0.01%
Related substance Maximum single impurity ([2]; Month 3): Undetected
Related substance Impurity 1 ([2]; Month 3): Undetected
Related substance Impurity 2 ([2]; Month 3): Undetected
Related substance Impurity 3 ([2]; Month 3): Undetected
Related substance Total impurity ([2]; Month 3, listed as 151211): 0.5%
Related substance Total impurity ([2]; Month 3, listed as 151212): 0.6%
Related substance Total impurity ([2]; Month 3, listed as 151213): 0.5%
Related substance Impurity 4 ([2]; Month 3, listed as 151211): 0.4%
Related substance Impurity 4 ([2]; Month 3, listed as 151212): 0.5%
Related substance Impurity 4 ([2]; Month 3, listed as 151213): 0.38%
Related substance Impurity 6 ([2]; Month 6): 0.01%
Related substance Impurity 5 ([2]; Month 6, listed as 151211): Undetected
Related substance Impurity 5 ([2]; Month 6, listed as 151212): 0.02%
Related substance Impurity 5 ([2]; Month 6, listed as 151213): Undetected
Related substance Maximum single impurity ([2]; Month 6, listed as 151211): 0.013%
Related substance Maximum single impurity ([2]; Month 6, listed as 151212): 0.070%
Related substance Maximum single impurity ([2]; Month 6, listed as 151213): 0.016%
Related substance Impurity 1 ([2]; Month 6): Undetected
Related substance Impurity 2 ([2]; Month 6, listed as 151211): 0.0028%
Related substance Impurity 3 ([2]; Month 6, listed as 151211): 0.099%
Related substance Impurity 2 ([2]; Month 6, listed as 151212): Undetected
Related substance Impurity 3 ([2]; Month 6, listed as 151212): 0.031%
Related substance Impurity 2 ([2]; Month 6, listed as 151213): Undetected
Related substance Impurity 3 ([2]; Month 6, listed as 151213): 0.033%
Related substance Total impurity ([2]; Month 6, listed as 151211): 0.73%
Related substance Total impurity ([2]; Month 6, listed as 151212): 0.88%
Related substance Total impurity ([2]; Month 6, listed as 151213): 0.63%
Related substance Impurity 4 ([2]; Month 6, listed as 151211): 0.42%
Related substance Impurity 4 ([2]; Month 6, listed as 151212): 0.54%
Related substance Impurity 4 ([2]; Month 6, listed as 151213): 0.40%
Crystalline form ([2]; Month 6): ModI
Related substance Impurity 5 ([2]; Month 9, listed as 151211): 0.02%
Related substance Impurity 6 ([2]; Month 9, listed as 151211): Undetected
Related substance Impurity 5 ([2]; Month 9, listed as 151212): 0.01%
Related substance Impurity 6 ([2]; Month 9, listed as 151212): 0.01%
Related substance Impurity 5 ([2]; Month 9, listed as 151213): Undetected
Related substance Impurity 6 ([2]; Month 9, listed as 151213): Undetected
Related substance Maximum single impurity ([2]; Month 9, listed as 151211): 0.013%
Related substance Maximum single impurity ([2]; Month 9, listed as 151212): Undetected
Related substance Maximum single impurity ([2]; Month 9, listed as 151213): Undetected
Related substance Impurity 1 ([2]; Month 9): Undetected
Related substance Impurity 2 ([2]; Month 9): Undetected
Related substance Impurity 3 ([2]; Month 9): Undetected
Related substance Total impurity ([2]; Month 9, listed as 151211): 0.61%
Related substance Total impurity ([2]; Month 9, listed as 151212): 0.77%
Related substance Total impurity ([2]; Month 9, listed as 151213): 0.58%
Related substance Impurity 4 ([2]; Month 9, listed as 151211): 0.43%
Related substance Impurity 4 ([2]; Month 9, listed as 151212): 0.56%
Related substance Impurity 4 ([2]; Month 9, listed as 151213): 0.42%
Related substance Impurity 5 ([2]; Month 12, listed as 151211): 0.01%
Related substance Impurity 6 ([2]; Month 12, listed as 151211): 0.03%
Related substance Impurity 5 ([2]; Month 12, listed as 151212): Undetected
Related substance Impurity 6 ([2]; Month 12, listed as 151212): 0.02%
Related substance Impurity 5 ([2]; Month 12, listed as 151213): 0.01%
Related substance Impurity 6 ([2]; Month 12, listed as 151213): Undetected
Related substance Maximum single impurity ([2]; Month 12): Undetected
Related substance Impurity 1 ([2]; Month 12): Undetected
Related substance Impurity 2 ([2]; Month 12): Undetected
Related substance Impurity 3 ([2]; Month 12): Undetected
Related substance Total impurity ([2]; Month 12, listed as 151211): 0.63%
Related substance Total impurity ([2]; Month 12, listed as 151212): 0.80%
Related substance Total impurity ([2]; Month 12, listed as 151213): 0.58%
Related substance Impurity 4 ([2]; Month 12, listed as 151211): 0.46%
Related substance Impurity 4 ([2]; Month 12, listed as 151212): 0.58%
Related substance Impurity 4 ([2]; Month 12, listed as 151213): 0.42%
Crystalline form ([2]; Month 12): ModI
stability of the crystalline form (conclusion from tables 4 and 5) ([2]; long-term and accelerated stability): thermodynamically stable form
degradation temperature [3]: about 241.71 °C

Source: US10954246B2, “Compound of EOC315 Mod.I crystal form and preparation method thereof” (Taizhou EOC Pharma Co., Ltd., priority 2017, dated 2021)
